Reference: ChEMBL document CHEMBL1149014, “Antineoplastic agents, 118. Isolation and structure of bryostatin 9” (1986)
Converted amounts (≈) assume the structure as drawn.

Assays:
Format in all cases: functional
P388 [1] = assay: In vivo antitumor activity against mouse P388 cells at 46 to 185 ug/kg relative to control
P388 [2] = assay: Cytotoxicity against mouse P388 cells
P388 [3] = assay: In vivo antitumor activity against mouse P388 cells assessed as cell life extension at 80 ug/kg

SMILES	T/C (P388 [1])	ED50 (P388 [2])	Activity (P388 [3])	EC50 (P388 [2]; Mus musculus, P388, read-out: ED50 (the source's name))
CCCC(=O)O[C@H]1C[C@H]2C[C@@H](O)CC(=O)O[C@@H]([C@@H](C)O)C[C@@H]3C/C(=C\C(=O)OC)[C@H](OC(C)=O)[C@@](O)(O3)C(C)(C)/C=C/[C@H]3C/C(=C\C(=O)OC)C[C@@H](C[C@](O)(O2)C1(C)C)O3 [BRYOSTATIN 6]	139%	1 ×10⁻⁵ ug/ml	–	–
CCCC(=O)O[C@H]1/C(=C/C(=O)OC)C[C@H]2C[C@H]([C@@H](C)O)OC(=O)C[C@H](O)C[C@@H]3C[C@H](OC(C)=O)C(C)(C)[C@](O)(C[C@@H]4C/C(=C/C(=O)OC)C[C@H](/C=C/C(C)(C)[C@]1(O)O2)O4)O3 [BRYOSTATIN 9]	–	–	40%	1.2 ng/mL (≈ 1.41 nM)
